# Biological target: T1, SiR (sulfite reductase; His-SiR) (Arabidopsis thaliana, UniProt Q9LZ66)
# T1 construct: N-terminal His tag, expressed in E. coli Rosetta (DE3), expected size 68 kDa; truncations printed up to residue 642
# T1 sequence (Q9LZ66 62-642): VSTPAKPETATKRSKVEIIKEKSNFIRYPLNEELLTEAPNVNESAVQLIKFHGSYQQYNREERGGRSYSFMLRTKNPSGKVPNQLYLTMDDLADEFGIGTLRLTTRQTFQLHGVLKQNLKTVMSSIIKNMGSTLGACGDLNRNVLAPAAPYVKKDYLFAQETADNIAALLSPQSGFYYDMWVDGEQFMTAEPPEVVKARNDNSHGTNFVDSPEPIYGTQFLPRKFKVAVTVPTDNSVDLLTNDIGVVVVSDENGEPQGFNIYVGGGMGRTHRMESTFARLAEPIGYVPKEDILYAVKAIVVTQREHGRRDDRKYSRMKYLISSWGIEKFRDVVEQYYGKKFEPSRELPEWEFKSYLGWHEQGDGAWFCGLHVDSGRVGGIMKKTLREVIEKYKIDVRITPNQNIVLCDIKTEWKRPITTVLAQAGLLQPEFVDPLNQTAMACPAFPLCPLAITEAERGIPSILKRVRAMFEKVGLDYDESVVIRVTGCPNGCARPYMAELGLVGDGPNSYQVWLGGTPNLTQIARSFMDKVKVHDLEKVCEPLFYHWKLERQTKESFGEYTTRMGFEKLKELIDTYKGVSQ
# Experiment: coupled assay: sulfide trapped as cysteine by O-acetylserine(thiol)lyase, ninhydrin, OD […] nm; sulfite varied
# Type: biochemical
# Conditions: pH 7.5, 25 mM HEPES, RT, 1 h; methyl viologen reduced by dithionite as electron donor; O-acetylserine 5 mM; without LSU1
structure (smiles),measurement,value
O=S(O)O [sulfite],"coupled assay: sulfide trapped as cysteine by O-acetylserine(thiol)lyase, ninhyd","Specific activities of the enzyme at various concentrations of: electron donor methyl‐viologen (a), substrate sulfite (b)"

# From publication PMC11658185, “Analysis of the quadruple lsu mutant reveals molecular determinants of the role of LSU proteins in sulfur assimilation in Arabidopsis” (The Plant Journal, 2024)
